{"source": "patent US20100069410A1", "about": "(Emisphere Technologies Inc., priority 2006, published 2010)", "origin": "cited, not measured here", "conditions": "orally administered, Physicians' Desk Reference 1994"}
{"compound": "Nc1nc2c(ncn2COCCO)c(=O)[nH]1", "note": "[acyclovir, 9-(2-hydroxyethoxymethyl) guanine]", "values": [{"measurement": "reported oral bioavailability", "result": "15-30%"}]}
